# Source: patent US7592373B2 (Boehringer Ingelheim International GmbH, priority 2003, dated 2009)
# Counter-ions that a name gives are not always drawn.
# Legend:
# hMCH-1R = target: T1, hMCH-1R (Homo sapiens, UniProt Q99705); assay: MCH-1 receptor binding test (125I-MCH binding to hMCH-1R transfected cell membranes); details: membranes of hMCH-1R transfected CHO/Galpha16 cells
# T1 construct: expressed in transfected cells
# Description: After the incubation the reaction is filtered using a cell harvester through 0.5% PEI treated fiberglass filters (GF/B, Unifilter Packard). The membrane-bound radioactivity retained on the filter is then determined after the addition of scintillator substance (Packard Microscint 20) in a measuring device (TopCount of Packard). […] The analysis of the concentration binding curve is carried out on the assumption of one receptor binding site.
# rats = details: cited from earlier work
# [1] = animals treated with the antagonist; cited from earlier work
# T1 sequence (Q99705 whole entry): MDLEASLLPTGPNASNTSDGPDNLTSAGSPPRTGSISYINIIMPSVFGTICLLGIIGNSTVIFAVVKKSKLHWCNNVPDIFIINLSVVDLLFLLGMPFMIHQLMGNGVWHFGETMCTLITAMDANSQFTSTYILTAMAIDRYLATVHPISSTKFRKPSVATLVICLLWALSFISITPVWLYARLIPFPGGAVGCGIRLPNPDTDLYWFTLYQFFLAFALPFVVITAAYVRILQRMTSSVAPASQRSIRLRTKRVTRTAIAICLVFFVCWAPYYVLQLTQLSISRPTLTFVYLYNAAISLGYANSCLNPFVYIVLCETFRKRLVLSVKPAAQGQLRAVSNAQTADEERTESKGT
SMILES,melting point,other results
"CCN(CC)CCOc1ccc(NC(=O)C#Cc2ccc(Cl)cc2Cl)c(Cl)c1 [Example 4.8, 3-(2,4-dichlorophenyl)propynoic acid-[2-chloro-4-(2-diethylaminoethoxy)phenyl]amide]",–,IC50 (hMCH-1R): 50 nM
"CN(C(=O)C#Cc1ccc(CN2CCCC2)cc1)c1ccc(-c2ccc(Cl)cc2)cc1 [Example 1.23, 3-(4-pyrrolidin-1-ylmethylphenyl)propynoic acid-(4′-chlorobiphenyl-4-yl)methylamide]",161 to 164 °C,IC50 (hMCH-1R): 7.5 nM
"COc1ccc(-c2ccc(NC(=O)/C=C/c3ccc(CN4CCCC4)cc3)cc2)cc1 [Example 5.1, (E)-N-(4′-methoxybiphenyl-4-yl)-3-(4-pyrrolidin-1-ylmethylphenyl)acrylamide]",199 to 200 °C,IC50 (hMCH-1R): 20 nM
COCC1=C(C(=O)OC)[C@H](c2ccc(F)c(F)c2)N(C(=O)NCCCN2CCC(c3cccc(NC(C)=O)c3)CC2)C(=O)N1 [SNAP-7941],–,effects in behavioral experiments (rats): anxiolytic and antidepressant effects; body weight in long term trials [1]: lose significant amounts of weight
"CN(Cc1ccc(/C=C/C(=O)Nc2ccc(-c3ccc(Cl)cc3)cc2)cc1)C1CCNCC1 (as salt: acetate) [Example 5.36, (E)-N-(4′-chlorobiphenyl-4-yl)-3-{4[(methylpiperidin-4-ylamino)methyl]phenyl}acrylamide×trifluoroacetic acid acetate]",207 to 208 °C,–
"CCN(CC)CCOc1ccc(NC(=O)C#Cc2ccc(C(F)(F)F)cc2Cl)cc1 [Example 3.38, 3-(2-chloro-4-trifluoromethylphenyl)propynoic acid-[4-(2-diethylaminoethoxy)phenyl]amide]",194 to 197 °C,–
CN(Cc1ccc(C#CC(=O)Nc2ccc(-c3ccc(Cl)cc3)cc2)cc1)Cc1ccccn1 [Example 1.58],217 to 218 °C,–
"COC1CCN(Cc2ccc(NC(=O)C#Cc3ccc(-c4ccc(Cl)cc4)cc3)cc2)CC1 [Example 3.13, 3-(4′-chlorobiphenyl-4-yl)propynoic acid-[4-(4-methoxypiperidin-1-ylmethyl)phenyl]amide]",227 to 234 °C,–
"O=C(CCc1ccc(CNCc2ccccc2)cc1)Nc1ccc(-c2ccc(Cl)cc2)cc1 [Example 6.38, 3-[4-(benzylaminomethyl)phenyl]-N-(4′-chlorobiphenyl-4-yl)propionamide]",176 °C,–
"CN(Cc1ccc(/C=C/C(=O)Nc2ccc(-c3ccc(Cl)cc3)cc2)cc1)C1CCOCC1 [Example 5.7, (E)-N-(4′-chlorobiphenyl-4-yl)-3-(4-{[methyl-(tetrahydropyran-4-yl)amino]methyl}phenyl)acrylamide]",196 to 197 °C,–
"CN(C(=O)C#Cc1ccc(CN2CCC(N3CCCC3)CC2)cc1)c1ccc(-c2ccc(Cl)cc2)cc1 (as salt: trifluoroacetate) [Example 1.24, 3-[4-(4-pyrrolidin-1-ylpiperidin-1-ylmethyl)phenyl]propynoic acid-(4′-chlorobiphenyl-4-yl)methylamideditrifluoroacetate]",161 to 164 °C,–
COCCN(C)Cc1ccc(/C=C/C(=O)Nc2ccc(-c3ccc(Cl)cc3)cc2)cc1 [Example 5.14],222 to 223 °C,–
"CC1CCC(N(C)Cc2ccc(/C=C/C(=O)Nc3ccc(-c4ccc(Cl)cc4)cc3)cc2)CC1 (centres unmarked) [Example 5.29, (E)-N-(4′-chlorobiphenyl-4-yl)-3-(4-{[methyl-(4-methylcyclohexyl)amino]methyl}phenyl)acrylamide]",227 to 258 °C,–
"O=C(CCc1ccc(CN2CCCC2)cc1)Nc1ccc(-c2ccc(Cl)cc2)cc1 [Example 6.11, N-(4′-chlorobiphenyl-4-yl)-3-(4-pyrrolidin-1-ylmethylphenyl)propionamide]",183 to 184 °C,–
"O=C(Nc1ccc(-c2ccc(Cl)cc2)cc1)C1CC1c1ccc(CN2CCOCC2)cc1 (centres unmarked) [Example 6.217, 2-(4-morpholin-4-ylmethylphenyl)cyclopropanecarboxylic acid (4′-chlorobiphenyl-4-yl)amide]",187 to 188 °C,–
"CC(C)(O)C1CCN(Cc2ccc(C#CC(=O)Nc3ccc(-c4ccc(Cl)cc4)cc3)cc2)CC1 [Example 1.34, 3-{4-[4-(1-hydroxy-1-methylethyl)piperidin-1-ylmethyl]phenyl}propynoic acid-(4′-chlorobiphenyl-4-yl)amide]",194 to 195 °C,–
"CCN(CC)CCOc1ccc(NC(=O)C#Cc2ccc(-c3ccccc3)cc2Cl)cc1Cl (as salt: hydrochloride) [Example 3.32, 3-(3-chlorobiphenyl-4-yl)propynoic acid-[3-chloro-4-(2-diethylaminoethoxy)phenyl]amide hydrochloride]",195 to 200 °C,–
"CC1CCN(CCOc2ccc(NC(=O)C#Cc3ccc(C(F)(F)F)cc3Cl)cc2)CC1 (as salt: hydrochloride) [Example 3.45, 3-(2-chloro-4-trifluoromethylphenyl)propynoic acid {4-[2-(4-methylpiperidin-1-yl)ethoxy]phenyl}amide hydrochloride]",240 to 245 °C,–
"O=C(CCc1ccc(CNCC2CC2)cc1)Nc1ccc(-c2ccc(Cl)cc2)cc1 [Example 6.15, N-(4′-chlorobiphenyl-4-yl)-3-{4-[(cyclopropylmethylamino)methyl]phenyl}propionamide]",191 to 192 °C,–
CCN(CC)CCOc1ccc(N(C)C(=O)C#Cc2ccc(C(F)(F)F)cc2Cl)cc1 [Example 3.39],135 to 138 °C,–
